Data set [1] relates to Human immunodeficiency virus 1. Briefly: microbe, parasite or virus in culture. Particulars: Human immunodeficiency virus 1, Ba-L.
Description: Antiviral activity against R5 tropic HIV1 Ba-L infected PBMC assessed as inhibition of viral p24 antigen expression
The target of data set [2] is C-C chemokine receptor type 5 (Homo sapiens, UniProt P51681). Kind of data set: Antagonist activity at human CCR5 expressed in CHO cells assessed as inhibition of MIP-1alpha-induced calcium mobilization. It is filed as functional, cell-based.
Data set [3] concerns Liver microsomes. Kind of data set: Metabolic stability in human liver microsomes assessed as compound remaining after 15 mins. Particulars: 0.25 h. Type of data set: ADME, Microsome.
For data set [4], the system named is Liver microsomes. Kind of data set: Metabolic stability in rat liver microsomes assessed as compound remaining after 15 mins. Type of data set: ADME, Microsome. Particulars: 0.25 h.
Data set [5] in a line: Half life in rat at 10 mg/kg, po. It is filed as ADME, organism-based. Further details: dose 10 mg/kg, route oral. To be noted: in vivo.
The subject of data set [6] is Rattus norvegicus. Briefly: Dose normalized AUC in rat at 10 mg/kg, po. It is filed as ADME, organism-based. More on the design: dose 10 mg/kg, route oral. Particulars: in vivo.
Data set [7] is described as follows: Bioavailability in rat at 10 mg/kg, po. It is filed as ADME, organism-based. Particulars: in vivo.
Data set [8] is described as follows: AUC in rat at 3 mg/kg, iv. To be noted: plasma. More on the design: dose 3 mg/kg, route intravenous. It is filed as ADME, organism-based.
The nature of data set [9]: Half life in rat at 3 mg/kg, iv. Type of data set: ADME, organism-based. More on the design: dose 3 mg/kg, route intravenous. To be noted: in vivo.
Data set [10] is described as follows: Clearance in rat at 3 mg/kg, iv. It is filed as ADME, organism-based. More on the design: dose 3 mg/kg, route intravenous. To be noted: in vivo.
Data set [11] has as its system Rattus norvegicus. Briefly: Dose normalized Cmax in rat at 10 mg/kg, po. It is filed as ADME, organism-based. More on the design: dose 10 mg/kg, route oral. To be noted: in vivo.
Data set [12] is described as follows: Cmax in rat at 10 mg/kg, po. Type of data set: ADME, organism-based. More on the design: dose 10 mg/kg, route oral. To be noted: in vivo.
A short description of data set [13]: Volume of distribution at steady state in rat at 3 mg/kg, iv. Particulars: in vivo.
Data set [14] in a line: Aqueous solubility of the compound at pH 6.8. Type of data set: physicochemical. Particulars: buffer.

C-C chemokine receptor type 5, sequence (P51681 whole entry): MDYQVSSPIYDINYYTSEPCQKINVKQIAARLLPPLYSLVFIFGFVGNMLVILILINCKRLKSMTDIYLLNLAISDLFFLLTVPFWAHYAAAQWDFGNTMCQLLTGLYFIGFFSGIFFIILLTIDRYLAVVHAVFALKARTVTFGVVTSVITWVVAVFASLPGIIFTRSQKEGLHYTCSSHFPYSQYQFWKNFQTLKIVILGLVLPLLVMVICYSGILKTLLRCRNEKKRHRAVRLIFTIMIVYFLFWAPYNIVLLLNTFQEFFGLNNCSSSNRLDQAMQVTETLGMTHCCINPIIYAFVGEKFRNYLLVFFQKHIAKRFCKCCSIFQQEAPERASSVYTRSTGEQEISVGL

`CCCCN1C(=O)[C@H](CC2CCCCC2)NC(=O)C12CCN(Cc1ccc(Oc3ccc(C(=O)O)cc3)cc1)CC2` returned an IC90 in data set [1] of 171 nM.
Take `CCCCN1C(=O)[C@@H]([C@H](O)C2CCCCC2)NC(=O)C12CCN(Cc1ccc(Oc3ccc(OC)cc3)cc1)CC2`: in data set [2], the IC50 came out at 91 nM.
Regarding `CCCCN1C(=O)[C@@H]([C@H](O)C2CCCCC2)NC(=O)C12CCN(Cc1ccc(Oc3ccc(O)cc3)cc1)CC2.Cl`, the IC50 in data set [2] was 68 nM. Besides, the Stability in the data set on Liver microsomes [3] was 3.5%; in the data set with Liver microsomes [4] it was 23%.
For `CCCCN1C(=O)[C@@H]([C@H](O)C2CCCCC2)NC(=O)C12CCN(Cc1ccc(Oc3ccc(C(N)=O)cc3)cc1)CC2.Cl` the same measures were 39 nM, 1.5% and 19%.
Take `CCCCN1C(=O)[C@@H]([C@H](O)C2CCCCC2)NC(=O)C12CCN(Cc1ccc(Oc3ccc(C(=O)NC)cc3)cc1)CC2.Cl`: the IC50 in data set [2] stood at 38 nM. The results for the half-life in [5] and in [9] were 1.22 h and 0.46 h, respectively. In the data set on Rattus norvegicus [6], this molecule showed an AUC/dose of 1296 ng·h/mL. In data set [7], this molecule registered a bioavailability of 10%. Besides, in data set [8], the AUC amounted to 3780 ng·h/mL. Moreover, the clearance in data set [10] was found to be 12.8 mL/min/kg. The molecule also showed a Cmax/dose with Rattus norvegicus [11] of 333 ng/mL.
On to `CCCCN1C(=O)[C@@H]([C@H](O)C2CCCCC2)NC(=O)C12CCN(Cc1ccc(Oc3ccc(S(N)(=O)=O)cc3)cc1)CC2`, for which the IC50 in data set [2] was 48 nM.
Consider `CCCCN1C(=O)[C@@H]([C@H](O)C2CCCCC2)NC(=O)C12CCN(Cc1ccc(Oc3ccc(S(C)(=O)=O)cc3)cc1)CC2`, for which the IC50 in data set [2] stood at 34 nM.
Consider `CCCCN1C(=O)[C@@H]([C@H](O)C2CCCCC2)NC(=O)C12CCN(Cc1ccc(Oc3ccc(NS(C)(=O)=O)cc3)cc1)CC2.Cl`, for which the Stability worked out at 1.8% in the data set with Liver microsomes [3] and 91% with Liver microsomes [4]. Moreover, the half-life in data set [5] was 3.42 h; in [9], 2.28 h. The molecule also displayed an AUC/dose in the data set on Rattus norvegicus [6] of 242 ng·h/mL. The bioavailability in [7] was determined as 5%. The molecule also had an AUC in data set [8] of 1540 ng·h/mL. The same molecule had a clearance in data set [10] of 25 mL/min/kg. The molecule further displayed a Cmax/dose in the data set on Rattus norvegicus [11] of 50 ng/mL.
On to `CCCCN1C(=O)[C@@H]([C@H](O)C(C)C)NC(=O)C12CCN(Cc1ccc(Oc3ccc(C(=O)O)cc3)cc1)CC2.Cl`, for which the IC50 in data set [2] worked out at 48 nM; in [1], 59 nM. The Stability in the data set on Liver microsomes [3] was 98%; in the data set with Liver microsomes [4], 100%. The molecule further displayed a Cmax in data set [12] of 137 ng/mL. The half-life in data set [5] came to 4.5 h; in data set [9] it was 0.22 h. Besides, in data set [7], the bioavailability was 5.9%. The same molecule displayed an AUC in data set [8] of 2310 ng·h/mL. Also, in data set [10], the clearance was 21.2 mL/min/kg. In addition, it took 591 nM to reach the 90% level in data set [1] (IC90).
Regarding `CCCCN1C(=O)[C@@H]([C@H](O)C2CC2)NC(=O)C12CCN(Cc1ccc(Oc3ccc(C(=O)O)cc3)cc1)CC2.Cl`, the IC50 in data set [2] stood at 81 nM. Further, the Stability is recorded as 89% with Liver microsomes [3] and 100% with Liver microsomes [4].
For `CCCCN1C(=O)[C@@H]([C@H](O)C2CCC2)NC(=O)C12CCN(Cc1ccc(Oc3ccc(C(=O)O)cc3)cc1)CC2.Cl` the same measures were 25 nM, 95% and 100%.
In the same order, the values of `CCCCN1C(=O)[C@@H]([C@H](O)C2CCCC2)NC(=O)C12CCN(Cc1ccc(Oc3ccc(C(=O)O)cc3)cc1)CC2.Cl` are 33 nM, 93% and 100%.
For `CCCCN1C(=O)[C@@H]([C@H](O)C2CCCCCC2)NC(=O)C12CCN(Cc1ccc(Oc3ccc(C(=O)O)cc3)cc1)CC2.Cl` the same measures were 32 nM, 34% and 59%.
Regarding `CCCCN1C(=O)[C@@H]([C@H](O)C2CCOCC2)NC(=O)C12CCN(Cc1ccc(Oc3ccc(C(=O)O)cc3)cc1)CC2`, in data set [2], the IC50 worked out at 120 nM.
In the case of `CCCCN1C(=O)[C@@H]([C@H](O)C2CCC(O)CC2)NC(=O)C12CCN(Cc1ccc(Oc3ccc(C(=O)O)cc3)cc1)CC2.Cl` (stereo partly drawn), the IC50 in data set [2] turned out to be 140 nM. The Stability in the data set on Liver microsomes [3] and with Liver microsomes [4] was 100% in each case.
As for `CCCCN1C(=O)[C@@H]([C@@H](O)C2CCC(O)CC2)NC(=O)C12CCN(Cc1ccc(Oc3ccc(C(=O)O)cc3)cc1)CC2.Cl` (stereo partly drawn), in [2], the IC50 stood at 23 nM. Moreover, in the data set with Liver microsomes [4], the Stability came out at 92%.
As to `CN1C(=O)[C@@H]([C@H](O)C2CCCCC2)NC(=O)C12CCN(Cc1ccc(Oc3ccc(C(=O)O)cc3)cc1)CC2`, in data set [2], the IC50 came to 50 nM.
Still for that read-out and setting: the value for `CCN1C(=O)[C@@H]([C@H](O)C2CCCCC2)NC(=O)C12CCN(Cc1ccc(Oc3ccc(C(=O)O)cc3)cc1)CC2` was 23 nM.
With `CCN1C(=O)[C@@H]([C@H](O)C2CCCCC2)NC(=O)C12CCN(Cc1ccc(Oc3ccc(C(=O)NC)cc3)cc1)CC2`, the IC50 in data set [2] is 20 nM.
As to `CCCN1C(=O)[C@@H]([C@H](O)C2CCCCC2)NC(=O)C12CCN(Cc1ccc(Oc3ccc(C(=O)NC)cc3)cc1)CC2.Cl`, the IC50 in data set [2] came out at 28 nM. The half-life is 2 h in data set [5] and 0.72 h in [9]. Besides, in the data set with Rattus norvegicus [6], the AUC/dose is 513 ng·h/mL. The molecule further had a bioavailability in data set [7] of 11.2%. Also, in data set [8], the AUC came out at 1370 ng·h/mL. The same molecule registered a clearance in data set [10] of 35.9 mL/min/kg. In data set [13], this molecule displayed a Vd of 1.73 L/kg. In the data set on Rattus norvegicus [11], this molecule gave a Cmax/dose of 133 ng/mL.
`CCCCCN1C(=O)[C@@H]([C@H](O)C2CCCCC2)NC(=O)C12CCN(Cc1ccc(Oc3ccc(C(=O)NC)cc3)cc1)CC2`: the IC50 in data set [2] was found to be 68 nM.
The same measure, in the same setting: the value for `CCCCCCN1C(=O)[C@@H]([C@H](O)C2CCCCC2)NC(=O)C12CCN(Cc1ccc(Oc3ccc(C(=O)NC)cc3)cc1)CC2` was 110 nM.
Still for that read-out and setting: under `CCCCCCCN1C(=O)[C@@H]([C@H](O)C2CCCCC2)NC(=O)C12CCN(Cc1ccc(Oc3ccc(C(=O)NC)cc3)cc1)CC2` stands 190 nM; under `CNC(=O)c1ccc(Oc2ccc(CN3CCC4(CC3)C(=O)N[C@H]([C@H](O)C3CCCCC3)C(=O)N4CCC(C)O)cc2)cc1` (stereo partly drawn), 180 nM; under `CNC(=O)c1ccc(Oc2ccc(CN3CCC4(CC3)C(=O)N[C@H]([C@H](O)C3CCCCC3)C(=O)N4CCOC)cc2)cc1`, 33 nM.
With `CNC(=O)c1ccc(Oc2ccc(CN3CCC4(CC3)C(=O)N[C@H]([C@H](O)C3CCCCC3)C(=O)N4CC(F)(F)F)cc2)cc1`, the IC50 in data set [2] came to 46 nM.
Turning to `CNC(=O)c1ccc(Oc2ccc(CN3CCC4(CC3)C(=O)N[C@H]([C@H](O)C3CCCCC3)C(=O)N4CC(F)(F)C(F)(F)F)cc2)cc1`, in [2], the IC50 came to 270 nM.
`CCCCN1C(=O)C(C(C)C)NC(=O)C12CCN(Cc1ccc(Oc3ccccc3)cc1)CC2.Cl` (stereo not drawn) gave a solubility in [14] of 0.2 µg/mL. Also, the half-life in [5] turned out to be 1.26 h; in data set [9], 0.217 h. Further, in the data set on Rattus norvegicus [6], the AUC/dose came to 96.7 ng·h/mL. In [7], this molecule had a bioavailability of 1.3%. In data set [8], this molecule displayed an AUC of 372 ng·h/mL. In addition, the Cmax/dose in the data set on Rattus norvegicus [11] amounted to 33.3 ng/mL.
In the case of `CCCCN1C(=O)C(CC2CCCCC2)NC(=O)C12CCN(Cc1ccc(Oc3ccc(C(=O)NC)cc3)cc1)CC2.Cl` (stereo not drawn), the half-life in data set [5] is 1.72 h; in data set [9], 0.332 h. Further, the AUC/dose in the data set with Rattus norvegicus [6] worked out at 24.8 ng·h/mL. For the same molecule, in data set [7], the bioavailability worked out at 1.9%. Moreover, the AUC in data set [8] was determined as 400 ng·h/mL. The same molecule came in with a clearance in data set [10] of 113 mL/min/kg. This molecule gave a Cmax/dose in the data set on Rattus norvegicus [11] of 5.6 ng/mL.
Take `CNC(=O)c1ccc(Oc2ccc(CN3CCC4(CC3)C(=O)N[C@H]([C@H](O)C3CCCCC3)C(=O)N4CCN(C)C)cc2)cc1`: the IC50 in data set [2] stood at 640 nM.
Same read-out and setting: the value for `CNC(=O)c1ccc(Oc2ccc(CN3CCC4(CC3)C(=O)N[C@H]([C@H](O)C3CCCCC3)C(=O)N4CCN)cc2)cc1` was 750 nM.
`Cc1ccc(-c2ccc3c(c2)C=C(C(=O)Nc2ccc(C[N+](C)(C)C4CCOCC4)cc2)CCC3)cc1` returned an IC90 in [1] of 256 nM.
In the case of `CCCCN1C(=O)[C@@H]([C@H](O)C2CCCCC2)NC(=O)C12CCN(Cc1ccc(Oc3ccccc3)cc1)CC2.Cl`, the values for the Stability in the data set on Liver microsomes [3] and with Liver microsomes [4] were 6% and 18%, respectively.
Regarding `CCCCN1C(=O)[C@@H]([C@H](O)C(C)C)NC(=O)C12CCN(Cc1ccc(Oc3ccccc3)cc1)CC2.Cl`, the solubility in data set [14] was 2.7 µg/mL.
Regarding `Cc1c(O)cccc1C(=O)N[C@@H](CSc1ccccc1)[C@H](O)CN1C[C@H]2CCCC[C@H]2C[C@H]1C(=O)NC(C)(C)C`, the IC90 in data set [1] was 105 nM.
Regarding `COC[C@@H](c1ccc(C(F)(F)F)cc1)N1CCN(C2(C)CCN(C(=O)c3c(C)ncnc3C)CC2)C[C@@H]1C` [VICRIVIROC], it took 79 nM to reach the 90% level in data set [1] (IC90). The IC90 values of the last two molecules are within 1.5-fold of each other.
On the same count and under the same terms, under `Cc1cn([C@H]2C[C@H](N=[N+]=[N-])[C@@H](CO)O2)c(=O)[nH]c1=O` [ZIDOVUDINE] stands 48 nM.

(Values after ChEMBL document CHEMBL1811891 (Bioorg Med Chem, 2011).)
